# What was measured:
# MATIN [1] = test: Pre-emergence herbicidal action against MATIN; format: in vivo, Matricaria inodora
# How it was run: (§1)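 Greenhouse pots of sandy loam held seeds covered with soil, onto which the compound was applied before emergence. An aqueous suspension or emulsion of WP or EC was used at 600 to 800 l/ha with 0.2% wetting agent. Percent damage was judged visually at 3 weeks.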
# AVEFA = test: Pre-emergence herbicidal action against AVEFA; format: in vivo, Avena fatua; conditions: 80 g/ha, pre-emergence
# How it was run: as §1
# PHBPU [2] = test: Post-emergence herbicidal action against PHBPU; format: in vivo, Pharbitis purpurea
# How it was run: (§2)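 Foliar application at one-leaf stage of formulated test compounds, aqueous spray at 600–800 l/ha with 0.2% wetting agent. Greenhouse, optimal conditions, ~3 weeks; damage scored visually in % relative to untreated plants.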
# POLCO = test: Pre-emergence herbicidal action against POLCO; format: in vivo, Polygonum convolvulus
# How it was run: as §1
# PHBPU [3] = test: Pre-emergence herbicidal action against PHBPU; format: in vivo, Pharbitis purpurea; conditions: dosage 80 g/ha
# How it was run: as §1
# VIOTR [4] = test: Pre-emergence herbicidal action against VIOTR; format: in vivo, Viola tricolor
# How it was run: as §1
# ECHCG [5] = test: Pre-emergence herbicidal action against ECHCG; format: in vivo, Echinochloa crus-galli; conditions: 80 g/ha
# How it was run: as §1
# ECHCG [6] = test: Post-emergence herbicidal action against ECHCG; format: in vivo, Echinochloa crus-galli
# How it was run: as §2
# AMARE [7] = test: Pre-emergence herbicidal action against AMARE; format: in vivo, Amaranthus retroflexus
# How it was run: as §1
# MATIN [8] = test: Post-emergence herbicidal action against MATIN; format: in vivo, Matricaria inodora
# How it was run: as §2
# AMARE [9] = test: Post-emergence herbicidal action against AMARE; format: in vivo, Amaranthus retroflexus; conditions: 20 g/ha, visual assessment about 3 weeks after treatment, 100% = plants have died, 0% = like control plants
# How it was run: as §2
# VERPE [10] = test: Post-emergence herbicidal action against VERPE; format: in vivo, Veronica persica
# How it was run: as §2
# ALOMY [11] = test: Post-emergence herbicidal action against ALOMY; format: in vivo, Alopecurus myosuroides; conditions: dosage 20 g/ha, visual assessment about 3 weeks after treatment vs untreated controls
# How it was run: as §2
# SETVI [12] = test: Post-emergence herbicidal action against SETVI; format: in vivo, Setaria viridis
# How it was run: as §2
# VIOTR [13] = test: Post-emergence herbicidal action against VIOTR; format: in vivo, Viola tricolor
# How it was run: as §2
# ABUTH [14] = test: Post-emergence herbicidal action against ABUTH; format: in vivo, Abutilon theophrasti; conditions: visual assessment about 3 weeks after treatment vs untreated controls
# How it was run: as §2
# SETVI [15] = test: Pre-emergence herbicidal action against SETVI; format: in vivo, Setaria viridis
# How it was run: as §1
# ABUTH [16] = test: Pre-emergence herbicidal action against ABUTH; format: in vivo, Abutilon theophrasti
# How it was run: as §1
# ALOMY [17] = test: Pre-emergence herbicidal action against ALOMY; format: in vivo, Alopecurus myosuroides; conditions: for Pre-emergence action against ALOMY: 20 g/ha, scored visually after 3 weeks, 100% = plants have died, 0% = like control plants
# How it was run: as §1
# DIGSA [18] = test: Pre-emergence herbicidal action against DIGSA; format: in vivo, Digitaria sanguinalis; conditions: Digitaria sanguinalis, 504 h
# How it was run: as §1
# VERPE [19] = test: Pre-emergence herbicidal action against VERPE; format: in vivo, Veronica persica
# How it was run: as §1
# DIGSA [20] = test: Post-emergence herbicidal action against DIGSA; format: in vivo, Digitaria sanguinalis; conditions: Digitaria sanguinalis, 504 h
# How it was run: as §2
# [21] = 20 g/ha, scored visually after 3 weeks vs untreated controls, 100% = plants have died, 0% = like control plants
# [22] = 80 g/ha, scored visually after 3 weeks vs untreated controls (100% = plants have died, 0% = like control plants)
# [23] = dosage 20 g/ha, scored visually after 3 weeks vs untreated controls, 100% = plants have died, 0% = like control plants
# [24] = 80 g/ha, pre-emergence, scored visually after 3 weeks vs untreated controls (100% = plants have died, 0% = like control plants)
# [25] = Tripleurospermum inodorum, 504 h, dosage 20 g/ha
# [26] = Setaria viridis, 504 h, dosage 20 g/ha
compound,measurement,setting,value
CCc1c(C(=O)Nc2nnnn2C)ccc(C(F)(F)F)c1C(=O)NCC(F)F [Example 1-276],Pre-emergence action against MATIN in %,MATIN [1]; dosage 20 g/ha,90%
same,Pre-emergence action against MATIN in %,MATIN [1]; dosage 80 g/ha,100%
same,Pre-emergence action against AVEFA in %,AVEFA,90%
same,Post-emergence action against PHBPU in %,PHBPU [2]; dosage 20 g/ha,90%
same,Pre-emergence action against POLCO in %,POLCO; dosage 20 g/ha,80%
same,Pre-emergence action against POLCO in %,POLCO; dosage 80 g/ha,90%
same,Pre-emergence action against PHBPU in %,PHBPU [3],90%
same,Pre-emergence action against VIOTR in %,VIOTR [4]; dosage 20 g/ha,80%
same,Pre-emergence action against VIOTR in %,VIOTR [4]; dosage 80 g/ha,100%
same,Pre-emergence action against ECHCG in %,ECHCG [5],100%
same,Post-emergence action against ECHCG in %,ECHCG [6]; dosage 20 g/ha,80%
same,Pre-emergence action against AMARE in %,AMARE [7]; [21],90%
same,Pre-emergence action against AMARE in %,AMARE [7]; [22],100%
same,Post-emergence action against MATIN in %,MATIN [8]; dosage 20 g/ha,80%
same,Post-emergence action at 20 g/ha against AMARE in %,AMARE [9],100%
same,Post-emergence action against VERPE in %,VERPE [10]; 20 g/ha,80%
same,Post-emergence action against ALOMY in %,ALOMY [11],80%
same,Post-emergence action against SETVI in %,SETVI [12]; dosage 5 g/ha,80%
same,Post-emergence action against SETVI in %,SETVI [12]; dosage 20 g/ha,80%
same,Post-emergence action against VIOTR in %,VIOTR [13]; 20 g/ha,80%
same,Post-emergence action against ABUTH in %,ABUTH [14]; dosage 5 g/ha,80%
same,Post-emergence action against ABUTH in %,ABUTH [14]; dosage 20 g/ha,80%
same,Pre-emergence action against SETVI in %,SETVI [15]; dosage 80 g/ha,100%
same,Pre-emergence action against ABUTH (herbicidal activity),ABUTH [16]; [22],100%
same,Pre-emergence action against ABUTH (herbicidal activity in percent),ABUTH [16]; [23],100%
same,Pre-emergence action against ALOMY,ALOMY [17],90%
same,Pre-emergence action against ALOMY (herbicidal activity),ALOMY [17]; [24],100%
CCc1c(C(=O)Nc2nnnn2C)ccc(C(F)F)c1C(=O)NC1CC1 [Example 1-279],pest or weed control at 20 g/ha,MATIN [1]; [25],100%
same,pest or weed control at 80 g/ha,"MATIN [1]; Tripleurospermum inodorum, 504 h, dosage 80 g/ha",100%
same,pest or weed control at 80 g/ha,"AVEFA; Avena fatua, 504 h",90%
same,pest or weed control at 5 g/ha,"PHBPU [2]; Ipomoea purpurea, 504 h, dosage 5 g/ha",90%
same,pest or weed control at 20 g/ha,"PHBPU [2]; Ipomoea purpurea, 504 h, dosage 20 g/ha",90%
same,pest or weed control at 20 g/ha,"POLCO; Fallopia convolvulus, 504 h, dosage 20 g/ha",80%
same,pest or weed control at 80 g/ha,"POLCO; Fallopia convolvulus, 504 h, dosage 80 g/ha",90%
same,pest or weed control at 20 g/ha,DIGSA [18]; dosage 20 g/ha,100%
same,pest or weed control at 80 g/ha,DIGSA [18]; dosage 80 g/ha,100%
same,pest or weed control at 80 g/ha,"PHBPU [3]; Ipomoea purpurea, 504 h",90%
same,pest or weed control at 20 g/ha,"VIOTR [4]; Viola tricolor, 504 h, dosage 20 g/ha",100%
same,pest or weed control at 80 g/ha,"VIOTR [4]; Viola tricolor, 504 h, dosage 80 g/ha",100%
same,pest or weed control at 80 g/ha,"VERPE [19]; Veronica persica, 504 h, dosage 80 g/ha",90%
same,pest or weed control at 80 g/ha,"ECHCG [5]; Echinochloa crus-galli, 504 h",100%
same,pest or weed control at 5 g/ha,"ECHCG [6]; Echinochloa crus-galli, 504 h, dosage 5 g/ha",80%
same,pest or weed control at 20 g/ha,"ECHCG [6]; Echinochloa crus-galli, 504 h, dosage 20 g/ha",90%
same,pest or weed control at 20 g/ha,"AMARE [7]; Amaranthus retroflexus, 504 h, 20 g/ha, scored visually after 3 weeks vs untreated controls, 100% = plants have died, 0% = like control plants",100%
same,pest or weed control at 80 g/ha,"AMARE [7]; Amaranthus retroflexus, 504 h, 80 g/ha, scored visually after 3 weeks vs untreated controls, 100% = plants have died, 0% = like control plants",100%
same,pest or weed control at 5 g/ha,"MATIN [8]; Tripleurospermum inodorum, 504 h, dosage 5 g/ha",90%
same,pest or weed control at 20 g/ha,MATIN [8]; [25],90%
same,pest or weed control at 20 g/ha,"AMARE [9]; Amaranthus retroflexus, 504 h",100%
same,pest or weed control at 5 g/ha,"VERPE [10]; Veronica persica, 504 h, 5 g/ha",80%
same,pest or weed control at 20 g/ha,"VERPE [10]; Veronica persica, 504 h, 20 g/ha",100%
same,pest or weed control at 5 g/ha,"SETVI [12]; Setaria viridis, 504 h, dosage 5 g/ha",90%
same,pest or weed control at 20 g/ha,SETVI [12]; [26],90%
same,pest or weed control at 5 g/ha,DIGSA [20]; 5 g/ha,90%
same,pest or weed control at 20 g/ha,DIGSA [20]; 20 g/ha,90%
same,pest or weed control at 5 g/ha,"VIOTR [13]; Viola tricolor, 504 h, 5 g/ha",90%
same,pest or weed control at 20 g/ha,"VIOTR [13]; Viola tricolor, 504 h, 20 g/ha",90%
same,pest or weed control at 5 g/ha,"ABUTH [14]; Abutilon theophrasti, 504 h, dosage 5 g/ha",80%
same,pest or weed control at 20 g/ha,"ABUTH [14]; Abutilon theophrasti, 504 h, dosage 20 g/ha",90%
same,pest or weed control at 20 g/ha,SETVI [15]; [26],80%
same,pest or weed control at 80 g/ha,"SETVI [15]; Setaria viridis, 504 h, dosage 80 g/ha",100%
same,pest or weed control at 80 g/ha,"ABUTH [16]; Abutilon theophrasti, 504 h, 80 g/ha, scored visually after 3 weeks vs untreated controls (100% = plants have died, 0% = like control plants)",100%
same,pest or weed control at 20 g/ha,"ABUTH [16]; Abutilon theophrasti, 504 h, dosage 20 g/ha, scored visually after 3 weeks vs untreated controls, 100% = plants have died, 0% = like control plants, read-out: Pre-emergence action against ABUTH (herbicidal activity in percent)",100%
same,pest or weed control at 80 g/ha,"ALOMY [17]; Alopecurus myosuroides, 504 h, 80 g/ha, pre-emergence, scored visually after 3 weeks vs untreated controls (100% = plants have died, 0% = like control plants)",80%
CC(NC(=O)c1c(C(F)(F)F)ccc(C(=O)Nc2nnnn2C)c1C1CC1)C1CC1 (centres unmarked) [Example 1-292],Pre-emergence action against MATIN in %,MATIN [1]; dosage 20 g/ha,100%
same,Pre-emergence action against MATIN in %,MATIN [1]; dosage 80 g/ha,100%
same,Post-emergence action against PHBPU in %,PHBPU [2]; dosage 5 g/ha,80%
same,Post-emergence action against PHBPU in %,PHBPU [2]; dosage 20 g/ha,80%
same,Pre-emergence action against POLCO in %,POLCO; dosage 80 g/ha,90%
same,Pre-emergence action against PHBPU in %,PHBPU [3],80%
same,Pre-emergence action against VIOTR in %,VIOTR [4]; dosage 20 g/ha,90%
same,Pre-emergence action against VIOTR in %,VIOTR [4]; dosage 80 g/ha,100%
same,Pre-emergence action against VERPE in %,VERPE [19]; dosage 20 g/ha,100%
same,Pre-emergence action against VERPE in %,VERPE [19]; dosage 80 g/ha,100%
same,Pre-emergence action against ECHCG in %,ECHCG [5],90%
same,Post-emergence action against ECHCG in %,ECHCG [6]; dosage 5 g/ha,80%
same,Post-emergence action against ECHCG in %,ECHCG [6]; dosage 20 g/ha,80%
same,Pre-emergence action against AMARE in %,AMARE [7]; [21],100%
same,Pre-emergence action against AMARE in %,AMARE [7]; [22],100%
same,Post-emergence action against MATIN in %,MATIN [8]; dosage 5 g/ha,80%
same,Post-emergence action against MATIN in %,MATIN [8]; dosage 20 g/ha,80%
same,Post-emergence action at 20 g/ha against AMARE in %,AMARE [9],100%
same,Post-emergence action against VERPE in %,VERPE [10]; 5 g/ha,80%
same,Post-emergence action against VERPE in %,VERPE [10]; 20 g/ha,90%
same,Post-emergence action against ALOMY in %,ALOMY [11],80%
same,Post-emergence action against SETVI in %,SETVI [12]; dosage 20 g/ha,90%
same,Post-emergence action against VIOTR in %,VIOTR [13]; 20 g/ha,80%
same,Post-emergence action against ABUTH in %,ABUTH [14]; dosage 20 g/ha,80%
same,Pre-emergence action against SETVI in %,SETVI [15]; dosage 80 g/ha,100%
same,Pre-emergence action against ABUTH (herbicidal activity),ABUTH [16]; [22],100%
same,Pre-emergence action against ABUTH (herbicidal activity in percent),ABUTH [16]; [23],100%
same,Pre-emergence action against ALOMY,ALOMY [17],80%
same,Pre-emergence action against ALOMY (herbicidal activity),ALOMY [17]; [24],90%

# Reference: patent US12655116B2, “Substituted isophthalic acid diamides” (Bayer Aktiengesellschaft, priority 2020, dated 2026)
